# Test results as given in patent publication US7358245B2, “Treatment of gastroesophageal reflux disease” (AstraZenca AB, priority 2001, dated 2008).
# Test system: transient lower esophageal sphincter relaxations (TLESRs)
# Assay: Screening for compounds active against TLESR (motility measurement in dogs)
# Assay type: in vivo, Adult Labrador retrievers (dog)
# Settings: vs five preceding control experiments for each dog
# Procedure: Adult Labrador retrievers of both genders, trained to stand in a Pavlov sling, are used. Mucosa-to-skin esophagostomies are formed and the dogs are allowed to recover completely before any experiments are done.
# In brief, after fasting for approximately 17 h with free supply of water, a multilumen sleeve/sidehole assembly (Dentsleeve, Adelaide, South Australia) is introduced through the esophagostomy to measure gastric, lower esophageal sphincter (LES) and esophageal pressures. The assembly is perfused with water using a low-compliance manometric perfusion pump (Dentsleeve, Adelaide, South Australia). An air-perfused tube is passed in the oral direction to measure swallows, and an antimony electrode monitored pH, 3 cm above the LES. All signals are amplified and acquired on a personal computer at 10 Hz.
# When a baseline measurement free from fasting gastric/LES phase III motor activity has been obtained, placebo (0.9% NaCl) or test compound is administered intravenously (i.v., 0.5 ml/kg) in a foreleg vein. Ten min after i.v. administration, a nutrient meal (10% peptone, 5% D-glucose, 5% Intralipid, pH 3.0) is infused into the stomach through the central lumen of the assembly at 100 ml/min to a final volume of 30 ml/kg. Immediately following the meal, air is insufflated at 40 ml/min. The experimental time from start of nutrient infusion to end of air insufflation is 45 min. The procedure has been validated as a reliable means of triggering TLESRs.
# TLESRs is defined as a decrease in lower esophageal sphincter pressure (with reference to intragastric pressure) at a rate of >1 mmHg/s. The relaxation should not be preceded by a pharyngeal signal ≦2 s before its onset in which case the relaxation is classified as swallow-induced. The pressure difference between the LES and the stomach should be less than 2 mmHg, and the duration of the complete relaxation longer than 1 s.
# The aminoalkylindole cannabinoid WIN 55,212-2, purchased from Tocris Cookson (Bristol, U.K.), was tested on Adult Labrador retrievers of both genders in accordance with the test model described above.
# Inhibition of the number of TLESRs was calculated with regard to the five preceding control experiments for each dog, and the results as set out in Table 1 below were achieved.
structure (smiles),measurement,setting,value
"COc1ccc2c(c1)c(CCN1CCOCC1)c(C)n2C(=O)c1cccc(Cl)c1Cl [L-768,242, (2,3-dichloro-phenyl)-[5-methoxy-2-methyl-3-(2-morpholin-4-yl-ethyl)-indol-1-yl]-methanone]",% INHIBITION ± SEM (N) of the number of TLESRs,dose 0.3 μmol/kg i.v.,8 ± 21 (4) %
same,% INHIBITION ± SEM (N) of the number of TLESRs,dose 1 μmol/kg i.v.,44 ± 6 (5) %
same,% INHIBITION ± SEM (N) of the number of TLESRs,dose 5 μmol/kg i.v.,63 ± 5 (4) %
same,% INHIBITION ± SEM (N) of the number of TLESRs,dose 7 μmol/kg i.v.,76 ± 12 (3) %
"Cc1c(C(=O)c2cccc3ccccc23)c2cccc3c2n1[C@H](CN1CCOCC1)CO3 [WIN 55,212-2, (2-methyl-3-morpholin-4-ylmethyl-3,4-dihydro-5-oxa-2a-aza-acenaphthylen-1-yl)-naphthalen-1-yl-methanone]",% INHIBITION ± SEM (N) of the number of TLESRs,dose 0.003 mg/kg i.v.,20 ± 18 (4) %
same,% INHIBITION ± SEM (N) of the number of TLESRs,dose 0.01 mg/kg i.v.,70 ± 10 (4) %
same,% INHIBITION ± SEM (N) of the number of TLESRs,dose 0.03 mg/kg i.v.,82 ± 1 (4) %
Cc1c(C(=O)NN2CCCCC2)nn(-c2ccc(Cl)cc2Cl)c1-c1ccc(Cl)cc1 [SR141716A],% STIMULATION ± SEM (N) of the number of TLESRs,dose 0.22 μmol/kg i.v.,43 ± 16 (6) %
